Read-outs that look alike come from different tables or passages of the source.
Legend:
[1] = tested on: P. falciparum 3D7 parasites; test: P. falciparum growth inhibition assay, 1-cycle (72 h treatment), SYBR DNA staining (library screen at 2 μg/mL and dose-response); type: cell-based, Plasmodium falciparum
[2] = tested on: P. falciparum 3D7 parasites; test: P. falciparum growth inhibition assay, 2-cycle (120 h treatment), delayed-death screen and dose-response; type: cell-based, Plasmodium falciparum
[3] = tested on: T. gondii RH strain (RH-Tub-eYFP) tachyzoites; test: microbe, parasite or virus in culture; type: cell-based, Toxoplasma gondii; settings: 72 h; for percent parasite growth at 2 µg/mL: Toxoplasma gondii
[4] = P. falciparum 3D7, 72 h, parasite screen at 2 μg/mL, % growth, replicate 1
[5] = P. falciparum 3D7, 72 h, parasite screen at 2 μg/mL, % growth, replicate 2
[6] = P. falciparum 3D7, 120 h, parasite screen at 2 μg/mL, % growth, replicate 1
[7] = P. falciparum 3D7, 120 h, parasite screen at 2 μg/mL, % growth, replicate 2
[8] = T. gondii, parasite screen at 2 μg/mL, % growth, replicate 1
[9] = T. gondii, parasite screen at 2 μg/mL, % growth, replicate 2
[10] = library screen at 2 μg/mL, 72 h, % growth, replicate 1
[11] = library screen at 2 μg/mL, 72 h, % growth, replicate 2
[12] = library screen at 2 μg/mL, 120 h, % growth, replicate 1
[13] = library screen at 2 μg/mL, 120 h, % growth, replicate 2
[14] = library screen at 2 μg/mL, % growth, replicate 1
[15] = library screen at 2 μg/mL, % growth, replicate 2
[16] = T. gondii, 2 μg/mL, values are growth (% of control)

`CC=C(C)C(O)C(C)C=C(C)C=CCC(C)=CCc1nc(OC)c(OC)c(O)c1C` (stereo not drawn) [BIA-P1069] showed a Pf_72h_%Growth_Rep1 [1, 4] of 80.36%, a Pf_72h_%Growth_Rep2 [1, 5] of 61.30% and a Pf_120h_%Growth_Rep1 [2, 6] of 92.39%. For the same compound, the Pf_120h_%Growth_Rep2 [2, 7] was 102.66%, the Tg_72h_%Growth_Rep1 [3, 8] was 120.41% and the Tg_72h_%Growth_Rep2 [3, 9] was 75.10%.

Compound `CCCC[C@H](O)[C@@H]1CC(OC)=CC(=O)O1` [BIA-P1067] has a Pf_72h_%Growth_Rep1 [1, 4] of 81.23%, a Pf_72h_%Growth_Rep2 [1, 5] of 52.23% and a Pf_120h_%Growth_Rep1 [2, 6] of 77.65%. It also gave a Pf_120h_%Growth_Rep2 [2, 7] of 111.54%, a Tg_72h_%Growth_Rep1 [3, 8] of 91.14% and a Tg_72h_%Growth_Rep2 [3, 9] of 92.83%.

For `CC1=CC[C@H]2C(C)(C)CCC[C@]2(C)[C@H]1CO` [Drimenol], the Pf_72h_%Growth_Rep1 [1, 10] was 88.25%, the Pf_72h_%Growth_Rep2 [1, 11] was 89.37% and the Pf_120h_%Growth_Rep1 [2, 12] was 92.79%. It also gave a Pf_120h_%Growth_Rep2 [2, 13] of 93.83%, a Tg_72h_%Growth_Rep1 [3, 14] of 153.93% and a Tg_72h_%Growth_Rep2 [3, 15] of 98.02%.

With `CC(=O)NCCc1ccc(O)cc1` [Acetyltyramine, N-] the Pf_72h_%Growth_Rep1 [1, 10] was 85.43%, the Pf_72h_%Growth_Rep2 [1, 11] was 84.08% and the Pf_120h_%Growth_Rep1 [2, 12] was 85.62%. It also gave a Pf_120h_%Growth_Rep2 [2, 13] of 81.27%, a Tg_72h_%Growth_Rep1 [3, 14] of 171.49% and a Tg_72h_%Growth_Rep2 [3, 15] of 89.14%.

`O=c1[nH]c2ccccc2c(-c2cccc(O)c2)c1O` [Viridicatol] was tested, and the Pf_72h_%Growth_Rep1 ([1]; P. falciparum, 72 h, screen at 2 μg/mL, replicate 1) was 94.32%, the Pf_72h_%Growth_Rep2 ([1]; P. falciparum, 72 h, screen at 2 μg/mL, replicate 2) was 122.09% and the Pf_120h_%Growth_Rep1 ([2]; P. falciparum, 120 h, screen at 2 μg/mL, replicate 1) was 110.38%. For the same compound, the Pf_120h_%Growth_Rep2 ([2]; P. falciparum, 120 h, screen at 2 μg/mL, replicate 2) was 105.05%, the Tg_72h_%Growth_Rep1 ([3]; T. gondii, screen at 2 μg/mL, replicate 1) was 112.17% and the Tg_72h_%Growth_Rep2 ([3]; T. gondii, screen at 2 μg/mL, replicate 2) was 75.26%.

`C=CC(C)(C)c1[nH]c2c(CC=C(C)C)cc(CC=C(C)C)cc2c1C[C@@H]1NC(=O)[C@H](C)NC1=O` [Echinulin] gave an activity at 2 µg/mL ([1]; Plasmodium falciparum, 3D7, library screen at 2 μg/mL, 72 h, % growth, replicate 1, read-out: Pf_72h_%Growth_Rep1) of 25.2%, an activity at 2 µg/mL ([1]; Plasmodium falciparum, 3D7, library screen at 2 μg/mL, 72 h, % growth, replicate 2, read-out: Pf_72h_%Growth_Rep2) of 35.1% and an activity at 2 µg/mL ([2]; Plasmodium falciparum, 3D7, library screen at 2 μg/mL, 120 h, % growth, replicate 1, read-out: Pf_120h_%Growth_Rep1) of 22.8%. The activity at 2 µg/mL ([2]; Plasmodium falciparum, 3D7, library screen at 2 μg/mL, 120 h, % growth, replicate 2, read-out: Pf_120h_%Growth_Rep2) was 39.3%, the percent parasite growth at 2 µg/mL ([3]; library screen at 2 μg/mL, % growth, replicate 1, read-out: Tg_72h_%Growth_Rep1) was 133% and the percent parasite growth at 2 µg/mL ([3]; library screen at 2 μg/mL, % growth, replicate 2, read-out: Tg_72h_%Growth_Rep2) was 104%.

`CO[C@@H]1[C@@H](OC(N)=O)[C@@H](O)[C@H](Oc2ccc3c(O)c(NC(=O)c4ccc(O)c(CC=C(C)C)c4)c(=O)oc3c2C)OC1(C)C` [Novobiocin, reference compound] was tested, and the activity at 2 µg/mL ([1]; Plasmodium falciparum, 3D7, 72 h, P. falciparum, 2 μg/mL, 72 h; read-out: 1) Growth (%) at 72 h) was 81.4%, the “3) Fold change (72 h/120 h)” value [2] was 5.7 and the activity at 2 µg/mL ([2]; Plasmodium falciparum, 3D7, 120 h, P. falciparum, 2 μg/mL, 120 h; read-out: 2) Growth (%) at 120 h) was 14.2%. The Mean ([3]; T. gondii, 2 μg/mL, mean of both replicates, growth (% of control)) was 51.41, the “Replicate 1” value [3, 16] was 9.17 and the “Replicate 2” value [3, 16] was 93.65.

`CN1C(=O)[C@]23C[C@H]4C(C)(C)[C@]5(CNc6c5ccc5c6OC=CC(C)(C)O5)C[C@@]41CN2CC[C@@]3(C)O` [Derquantel] was tested, and the Pf_72h_%Growth_Rep1 [1, 10] was 84.92%, the Pf_72h_%Growth_Rep2 [1, 11] was 84.29% and the Pf_120h_%Growth_Rep1 [2, 12] was 88.90%. It also gave a Pf_120h_%Growth_Rep2 [2, 13] of 91.44%, a Tg_72h_%Growth_Rep1 [3, 14] of 207.28% and a Tg_72h_%Growth_Rep2 [3, 15] of 97.75%.

In the case of `Cc1cccc(O)c1C(=O)O` [BIA-M1655], the Pf_72h_%Growth_Rep1 [1, 4] is reported as 90.28%, the Pf_72h_%Growth_Rep2 [1, 5] is reported as 64.98% and the Pf_120h_%Growth_Rep1 [2, 6] is reported as 96.92%. It also gave a Pf_120h_%Growth_Rep2 [2, 7] of 97.37%, a Tg_72h_%Growth_Rep1 [3, 8] of 91.77% and a Tg_72h_%Growth_Rep2 [3, 9] of 83.98%.

From article PMC12396409, “Screening and hit evaluation of a microbial metabolite library against the pathogenic Plasmodium falciparum and Toxoplasma gondii parasites” (International Journal for Parasitology: Drugs and Drug …, 2025)
